The numbers were not newly measured in patent US8288342B2, “Methods for treating vasomotor symptoms in castrated prostatic cancer patients with low dose cyproterone acetate” (priority 2008, dated 2012), which cites them from elsewhere.

The test system of the series is hot flashes. As to conditions: 37 subjects with bothersome hot flashes; cited from earlier work.

Each structure is given as a SMILES string.

As for `CC(=O)O[C@]1(C(C)=O)CC[C@H]2[C@@H]3C=C(C)C4=CC(=O)CC[C@]4(C)[C@H]3CC[C@@]21C` [MA, megestrol acetate], the “Therapeutic efficacy: reduction in hot flashes” value is 70%.
